{
  "source": "the NIST ThermoML archive (doi:10.1016/j.jct.2007.08.008)",
  "conditions": "Crystal; for mass density: 298.15 K, 101.33 kPa, measurement of volume and mass of pellet; for vapor or sublimation pressure: Calculated from knudsen effusion weight loss",
  "note": "Values joined by “and” are separate entries in the source; they are usually repeats but may differ in a detail not shown here. Equal values may be shown once. Numbers after ± are expanded uncertainties.",
  "data": [
    {"molecule": "c1ccc(-c2ccc(-c3ccccc3)cc2)cc1", "note": "[p-terphenyl]", "values": [
      {"measurement": "mass density", "value": "1200 ± 20", "unit": "kg/m3"},
      {"measurement": "vapor or sublimation pressure", "setting": "373.27 K", "value": "0.000127 ± 6e-06 kPa and 0.000126 ± 6e-06 kPa and 0.000125 ± 6e-06 kPa"},
      {"measurement": "vapor or sublimation pressure", "setting": "375.22 K", "value": "0.000154 ± 8e-06 kPa and 0.000153 ± 8e-06 kPa"},
      {"measurement": "vapor or sublimation pressure", "setting": "377.14 K", "value": "0.000185 ± 9e-06 kPa and 0.000189 ± 9e-06 kPa and 0.000182 ± 9e-06 kPa"},
      {"measurement": "vapor or sublimation pressure", "setting": "379.28 K", "value": "0.000232 ± 1.2e-05 kPa and 0.000233 ± 1.2e-05 kPa and 0.000234 ± 1.2e-05 kPa"},
      {"measurement": "vapor or sublimation pressure", "setting": "381.21 K", "value": "0.00028 ± 2e-05 kPa and 0.000283 ± 1.4e-05 kPa and 0.000281 ± 1.4e-05 kPa"},
      {"measurement": "vapor or sublimation pressure", "setting": "383.28 K", "value": "0.000344 ± 1.7e-05 kPa and 0.000347 ± 1.7e-05 kPa and 0.000348 ± 1.7e-05 kPa"},
      {"measurement": "vapor or sublimation pressure", "setting": "385.17 K", "value": "0.000421 ± 2.1e-05 kPa and 0.000417 ± 2.1e-05 kPa"},
      {"measurement": "vapor or sublimation pressure", "setting": "387.12 K", "value": "0.000516 ± 2.6e-05 kPa and 0.000498 ± 2.5e-05 kPa"},
      {"measurement": "vapor or sublimation pressure", "setting": "389.27 K", "value": "0.000628 ± 3.1e-05 kPa and 0.000626 ± 3.1e-05 kPa and 0.000631 ± 3.2e-05 kPa"},
      {"measurement": "vapor or sublimation pressure", "setting": "391.16 K", "value": "0.000748 ± 3.7e-05 kPa and 0.000758 ± 3.8e-05 kPa and 0.000757 ± 3.8e-05 kPa"},
      {"measurement": "vapor or sublimation pressure", "setting": "393.22 K", "value": "0.000928 ± 4.6e-05 kPa and 0.000931 ± 4.7e-05 kPa and 0.000922 ± 4.6e-05 kPa"},
      {"measurement": "vapor or sublimation pressure", "setting": "395.27 K", "value": "0.001137 ± 0.00012 kPa and 0.001131 ± 0.00012 kPa and 0.001138 ± 0.00012 kPa"}
    ]},
    {"molecule": "c1ccc(-c2cccc(-c3ccccc3)c2)cc1", "note": "[m-terphenyl]", "values": [
      {"measurement": "mass density", "value": "1140 ± 20", "unit": "kg/m3"},
      {"measurement": "vapor or sublimation pressure", "setting": "337.28 K", "value": "6.28e-05 ± 3.2e-06 kPa and 6.44e-05 ± 3.2e-06 kPa and 6.48e-05 ± 3.3e-06 kPa"},
      {"measurement": "vapor or sublimation pressure", "setting": "339.22 K", "value": "8.09e-05 ± 4.1e-06 kPa and 8.13e-05 ± 4.1e-06 kPa and 7.88e-05 ± 4e-06 kPa"},
      {"measurement": "vapor or sublimation pressure", "setting": "341.11 K", "value": "0.000101 ± 5e-06 kPa and 9.73e-05 ± 4.9e-06 kPa"},
      {"measurement": "vapor or sublimation pressure", "setting": "343.27 K", "value": "0.000133 ± 7e-06 kPa and 0.00013 ± 1e-05 kPa and 0.000134 ± 7e-06 kPa"},
      {"measurement": "vapor or sublimation pressure", "setting": "345.21 K", "value": "0.000164 ± 8e-06 kPa and 0.000163 ± 8e-06 kPa and 0.000162 ± 8e-06 kPa"},
      {"measurement": "vapor or sublimation pressure", "setting": "347.1 K", "value": "0.000197 ± 1e-05 kPa and 0.000204 ± 1e-05 kPa"},
      {"measurement": "vapor or sublimation pressure", "setting": "349.27 K", "value": "0.000263 ± 1.3e-05 kPa and 0.000257 ± 1.3e-05 kPa and 0.000264 ± 1.3e-05 kPa"},
      {"measurement": "vapor or sublimation pressure", "setting": "351.2 K", "value": "0.000324 ± 1.6e-05 kPa and 0.000328 ± 1.6e-05 kPa"},
      {"measurement": "vapor or sublimation pressure", "setting": "353.11 K", "value": "0.000403 ± 2e-05 kPa and 0.000399 ± 2e-05 kPa"},
      {"measurement": "vapor or sublimation pressure", "setting": "355.28 K", "value": "0.000518 ± 2.6e-05 kPa and 0.000524 ± 2.6e-05 kPa and 0.000532 ± 2.7e-05 kPa"},
      {"measurement": "vapor or sublimation pressure", "setting": "357.19 K", "value": "0.000655 ± 3.3e-05 kPa and 0.00065 ± 3.3e-05 kPa and 0.000648 ± 3.2e-05 kPa"},
      {"measurement": "vapor or sublimation pressure", "setting": "359.1 K", "value": "0.000797 ± 4e-05 kPa and 0.00081 ± 4.1e-05 kPa and 0.000807 ± 4e-05 kPa"}
    ]},
    {"molecule": "c1ccc(-c2ccccc2-c2ccccc2)cc1", "note": "[o-terphenyl]", "values": [
      {"measurement": "mass density", "value": "1120 ± 20", "unit": "kg/m3"},
      {"measurement": "vapor or sublimation pressure", "setting": "312.3 K", "value": "6.04e-05 ± 3e-06 kPa and 6.13e-05 ± 3.1e-06 kPa and 5.87e-05 ± 2.9e-06 kPa"},
      {"measurement": "vapor or sublimation pressure", "setting": "313.79 K", "value": "7.08e-05 ± 3.6e-06 kPa and 7.16e-05 ± 3.6e-06 kPa"},
      {"measurement": "vapor or sublimation pressure", "setting": "315.13 K", "value": "8.28e-05 ± 4.2e-06", "unit": "kPa"},
      {"measurement": "vapor or sublimation pressure", "setting": "315.14 K", "value": "8.47e-05 ± 4.2e-06 kPa and 8.48e-05 ± 4.3e-06 kPa"},
      {"measurement": "vapor or sublimation pressure", "setting": "315.78 K", "value": "7.29e-05 ± 1.2e-05", "unit": "kPa"},
      {"measurement": "vapor or sublimation pressure", "setting": "316.78 K", "value": "0.000103 ± 5e-06 kPa and 0.000102 ± 5e-06 kPa and 0.000104 ± 5e-06 kPa"},
      {"measurement": "vapor or sublimation pressure", "setting": "318.28 K", "value": "0.000125 ± 6e-06 kPa and 0.000123 ± 6e-06 kPa and 0.000124 ± 6e-06 kPa"},
      {"measurement": "vapor or sublimation pressure", "setting": "319.64 K", "value": "0.000143 ± 7e-06 kPa and 0.000145 ± 7e-06 kPa and 0.000148 ± 7e-06 kPa"},
      {"measurement": "vapor or sublimation pressure", "setting": "321.28 K", "value": "0.000181 ± 9e-06 kPa and 0.000179 ± 9e-06 kPa and 0.000174 ± 9e-06 kPa"},
      {"measurement": "vapor or sublimation pressure", "setting": "322.78 K", "value": "0.000217 ± 1.1e-05 kPa and 0.000212 ± 1.1e-05 kPa"},
      {"measurement": "vapor or sublimation pressure", "setting": "324.14 K", "value": "0.000247 ± 1.2e-05 kPa and 0.000249 ± 1.2e-05 kPa"},
      {"measurement": "vapor or sublimation pressure", "setting": "325.78 K", "value": "0.000305 ± 1.5e-05 kPa and 0.000308 ± 1.5e-05 kPa and 0.0003 ± 1.5e-05 kPa"},
      {"measurement": "vapor or sublimation pressure", "setting": "327.28 K", "value": "0.000368 ± 1.8e-05 kPa and 0.00036 ± 1.8e-05 kPa and 0.000361 ± 1.8e-05 kPa"},
      {"measurement": "vapor or sublimation pressure", "setting": "328.63 K", "value": "0.000419 ± 2.1e-05 kPa and 0.000422 ± 2.1e-05 kPa and 0.000423 ± 2.1e-05 kPa"}
    ]}
  ]
}
